# Reference: the supplement of paper PMC7224384
# Legend:
# MDA-MB-453 [1] = assay: drug sensitivity score (DSS), single agent (DSS (weighted AUC score)); higher = more sensitive (stronger viability decrease); extreme values may be limits of the assay; conditions: BLU9931 0 nM; 72 h
# Outline: (§1)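 Drug sensitivity scores come from a weighted area under a four-parameter logistic fit to percent viability, normalised per plate to control wells. Viability was based on cellular ATP read with CellTiterGlo 2.0 after 72 h at 37 °C, 5% CO2. Each 384-well plate carried FIMM Oncology set compounds in singlicate at five 10-fold dilutions, with 2000 MDA-MB-453 cells per well in medium with or without an FGFR4 inhibitor at 100 nM final.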
# MDA-MB-453 [2] = assay: drug sensitivity score (DSS), in combination with BLU9931 (DSS (weighted AUC score)); higher = more sensitive (stronger viability decrease); extreme values may be limits of the assay; conditions: BLU9931 100 nM; 72 h
# Outline: as §1
Structure (SMILES),drug sensitivity score (MDA-MB-453 [1]),drug sensitivity score (MDA-MB-453 [2])
O=c1ncn2nc(Sc3ccc(F)cc3F)ccc2c1-c1c(Cl)cccc1Cl [Neflamapimod],0,0
CC/C(=C(\c1ccccc1)c1ccc(OCCN(C)C)cc1)c1ccccc1 [Tamoxifen],5.3,2.4
COCCOc1cnc2ccn([C@H](C)c3nnc4c(F)cc(-c5cnn(C)c5)cn34)c(=O)c2c1 [AMG-337],0,0
Cn1cncc1[C@@](N)(c1ccc(Cl)cc1)c1ccc2c(c1)c(-c1cccc(Cl)c1)cc(=O)n2C [Tipifarnib],8.3,4.1
O=C(O)c1ccc(-c2c[nH]c3ncc(-c4ccccc4)cc23)cc1C1CCCC1,1.4,0.5
NC(=O)c1cccc2cn(-c3ccc([C@@H]4CCCNC4)cc3)nc12 [Niraparib],2.3,1.3
Cn1cc(CNCC2CCN(c3ncc(C(=O)NO)cn3)CC2)c2ccccc21 [Quisinostat],22.4,21.3
CCOc1ccccc1-n1c(C(C)N2CCN(C(=O)COc3ccc(Cl)cc3)CC2)nc2ccccc2c1=O (centres undefined) [Erastin],4.1,5.6
Nc1ncnc2c1c(COc1cccc(Cl)c1)nn2C1CCOCC1,0.9,0.9
COc1cc(N2CCC(N3CCN(C)CC3)CC2)ccc1Nc1ncc(Cl)c(Nc2ccccc2P(C)(C)=O)n1 [Brigatinib],2.4,2
CNC(=O)c1ccc(N2C(=S)N(c3cnc(C#N)c(C(F)(F)F)c3)C(=O)C23CCC3)cc1F [Apalutamide],0,0
O=C(NC[C@H](O)CN1CCc2ccccc2C1)c1cc(NC2COC2)ncn1,3.9,4.3
OC[C@H]1O[C@@H](n2cnc3c2N=CNC[C@H]3O)C[C@@H]1O [Pentostatin],1,0
CCC(C)(C)C(=O)O[C@H]1C[C@@H](C)C=C2C=C[C@H](C)[C@H](CC[C@@H]3C[C@@H](O)CC(=O)O3)[C@H]21 [Simvastatin],0,0.1
COc1ccc(-c2nc(N3CCOCC3)c3sc(CN(C)c4ncc(C(=O)NO)cn4)cc3n2)cn1 [CUDC-907],38.8,40
Cc1ccc(NC(=O)c2ccc(CN3CCN(C)CC3)cc2)cc1Nc1nc(-c2cccnc2)cs1 [Masitinib],3.1,1.8
Nc1ncnc2c1nc(Cl)n2[C@@H]1O[C@H](CO)[C@@H](O)[C@H]1O [8-chloro-adenosine],8.1,9.4
CC[C@@](C)(Nc1ccnc(-c2c[nH]c3ncccc23)n1)C(=O)NCC(F)(F)F [Decernotinib],0,0
CC1=C2C[C@H]3[C@@H](CC[C@@H]4C[C@H](NS(C)(=O)=O)CC[C@@]43C)[C@@H]2CC[C@@]2(C1)O[C@@H]1C[C@H](C)CN[C@H]1[C@H]2C [Saridegib],0,0

Structure (SMILES),drug sensitivity score (MDA-MB-453 [1]),drug sensitivity score (MDA-MB-453 [2])
C=CC(=O)N1CCC(Oc2cc3c(Nc4ccc(Cl)c(Cl)c4F)ncnc3cc2OC)CC1 [Poziotinib],19.1,25.1
CCS(=O)(=O)Nc1ccc(Oc2ccc(F)cc2F)c(-c2cn(C)c(=O)c3[nH]ccc23)c1 [Mivebresib],29.9,31.1
C[C@]1(c2nc3c(C(N)=O)cccc3[nH]2)CCCN1 [Veliparib],1.6,2.9
COc1cc2c(Oc3ccc(NC(=O)C4(C(=O)Nc5ccc(F)cc5)CC4)cc3F)ccnc2cc1OCCCN1CCOCC1 [Foretinib],1.1,1.2
CC(=O)[C@]1(O)Cc2c(O)c3c(c(O)c2[C@@H](O[C@H]2C[C@H](N)[C@H](O)[C@H](C)O2)C1)C(=O)c1ccccc1C3=O [Idarubicin],5.9,6.4
CN1CCC(COc2cnc(-c3cccc(Cn4nc(-c5cccc(C#N)c5)ccc4=O)c3)nc2)CC1 [Tepotinib],0,0
CONC(=O)c1ccccc1Nc1cc(Nc2cc(C)nn2C(C)C)ncc1Cl,0.8,0.5
Cc1c(-c2c(-c3ccc(F)o3)sc3ncnc(O[C@H](Cc4ccccc4OCc4ccnn4CC(F)(F)F)C(=O)O)c23)ccc(OCCN2CCN(C)CC2)c1Cl,4.2,3.3
COCC[n+]1c2c(n(Cc3cnccn3)c1C)C(=O)c1ccccc1C2=O [Sepantronium bromide],32.9,33.2
CO[C@H]1C(=O)[C@]2(C)[C@@H](OC)C[C@H]3OC[C@@]3(OC(C)=O)[C@H]2[C@H](OC(=O)c2ccccc2)[C@]2(O)C[C@H](OC(=O)[C@H](O)[C@@H](NC(=O)OC(C)(C)C)c3ccccc3)C(C)=C1C2(C)C [Cabazitaxel],14.6,8.8
CC(C)(C)c1cc(NC(=O)Nc2ccc(-c3cn4c(n3)sc3cc(OCCN5CCOCC5)ccc34)cc2)no1 [Quizartinib],1,0.4
Cn1nccc1Nc1nccc(-c2ccn([C@H](CO)c3ccc(Cl)c(F)c3)c(=O)c2)n1 [Ravoxertinib],6.9,5.6
CCc1cncnc1N1CCN(Cc2nc3ccc(C(F)(F)F)cc3[nH]2)CC1,0.6,0.6
CNC(=O)c1cccc2cc(Oc3ccnc4cc(OCC5(N)CC5)c(OC)cc34)ccc12 [Lucitanib],2.9,0.9
CC(C)(C)C[C@@H]1N[C@@H](C(=O)N[C@H]2CC[C@H](O)CC2)[C@H](c2cccc(Cl)c2F)[C@]12C(=O)Nc1cc(Cl)ccc12,0.9,0
FC(F)c1nc2ccccc2n1-c1nc(N2CCOCC2)nc(N2CCOCC2)n1 [ZSTK474],14.9,15.6
C[C@@H]1CCN(C(=O)CC#N)C[C@@H]1N(C)c1ncnc2[nH]ccc12 [Tofacitinib],0,0
CCc1cnn2c(NCc3ccc[n+]([O-])c3)cc(N3CCCC[C@H]3CCO)nc12 [Dinaciclib],22.1,21.5
CCS(=O)(=O)c1cccc(-c2cc(C(=O)NC3CCN(C)CC3)c(C)c3[nH]c4ncc(C)cc4c23)c1 [TAK-901],2.7,3

Structure (SMILES),drug sensitivity score (MDA-MB-453 [1]),drug sensitivity score (MDA-MB-453 [2])
COCC1(CO)C(=O)C2CCN1CC2 (centres undefined) [APR-246],0,0.4
COc1ccc(Cn2ccc3ccc(C(=O)NO)cc32)cc1,0.8,2.3
Cc1cnc(NC(=O)Nc2cc(Br)c(C)cc2OC[C@@H]2CNCCO2)cn1 [Rabusertib],1.2,0.9
Cc1ccc(C(=O)N(CCCN)[C@@H](c2oc3cc(Cl)ccc3c(=O)c2Cc2ccccc2)C(C)C)cc1,5.3,1.8
NC[C@@](O)(c1ccc(Cl)cc1)c1ccc(-c2cn[nH]c2)cc1,1.3,2.4
Cc1cccc(CC(=O)N2CCc3c2ccc(-c2cn(C)c4ncnc(N)c24)c3F)n1,2.2,0
COC(=O)C[C@](O)(CCCC(C)(C)O)C(=O)O[C@@H]1C(OC)=C[C@]23CCCN2CCc2cc4c(cc2[C@H]13)OCO4 [Omacetaxine],22.1,20.5
CC#CC(=O)N1CCC[C@H]1c1nc(-c2ccc(C(=O)Nc3ccccn3)cc2)c2c(N)nccn12 [Acalabrutinib],4.2,2.4
CCCCOc1nc(N)c2c(n1)N(Cc1cccc(CN3CCCC3)c1)CC(=O)N2 [Vesatolimod],3,0
C=CC(=O)Nc1cccc(Nc2nc(Nc3ccc(N4CCN(C(C)=O)CC4)cc3OC)ncc2C(F)(F)F)c1 [Rociletinib],7.8,7.9
Cn1cnc2c(F)c(Nc3ccc(Br)cc3Cl)c(C(=O)NOCCO)cc21 [Selumetinib],0.7,0.7
C[C@H]1C[C@@H]2[C@H]([C@@H](O)C[C@@]3(C)[C@H]2CC[C@]3(O)C(=O)CO)[C@@]2(C)C=CC(=O)C=C12 [Methylprednisolone],5.2,0
COc1cc2ncnc(Nc3ccc(F)c(Cl)c3)c2cc1NC(=O)/C=C/CN1CCCCC1 [Dacomitinib],7.3,8.6
CC(C)NC(=O)COc1cccc(-c2nc(Nc3ccc4[nH]ncc4c3)c3ccccc3n2)c1 [KD025],5.6,6
CON(C)C(=O)N1N=C(c2cc(F)ccc2F)S[C@@]1(CCCN)c1ccccc1 [Filanesib],16.7,15.3
Clc1ccc(Nc2nnc(Cc3ccncc3)c3ccccc23)cc1 [Vatalanib],0.8,0.3
COc1cc(OC)c(/C=C/S(=O)(=O)Cc2ccc(OC)c(NCC(=O)O)c2)c(OC)c1 [Rigosertib],17.6,16.2
CN1CCC(CNc2ccc3ncc(-c4cccc(OC(F)(F)F)c4)n3n2)CC1 [SGI-1776],6.6,5.8
Cn1cnc2c(F)c(Nc3ccc(Br)cc3F)c(C(=O)NOCCO)cc21 [Binimetinib],0,0.2
